Some test systems named below: HCT-15 colon; LOX IMVI melanoma; OVCAR-5 ovarian; KM12 colon; RXF 393 renal; UACC-62 melanoma; NCI-H522 lung; UO-31 renal; TK-10 renal; OVCAR-4 ovarian.
Holding throughout (test): NCI-60 cell line screen, 48 h

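Step 1: Grow cells in 96-well plates. Step 2: Expose to compound for 48 hours at 5 concentrations. Step 3: Interpolate endpoints linearly; if unreached, use highest concentration. At the GI50, growth is halved. At the TGI there is no net growth.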

Regarding `COc1cccc(C2C(C#N)=C(N)Oc3cc(OC)ccc32)c1` (stereo not given), the GI50 with HCT-15 colon was 0.0366 µM; in the experiment on LOX IMVI melanoma, 0.0835 µM; in the experiment with OVCAR-5 ovarian it was 0.0678 µM; in the experiment with KM12 colon, 0.0314 µM; with RXF 393 renal, 0.026 µM; in the experiment on UACC-62 melanoma it was 0.0682 µM. The GI50 with NCI-H522 lung was < 0.0105 µM; in the experiment on UO-31 renal it was 0.0572 µM; in the experiment with TK-10 renal, 11.8 µM; in the experiment on OVCAR-4 ovarian it was 1.96 µM. Besides, the TGI with HCT-15 colon is > 100 µM; in the experiment with LOX IMVI melanoma, > 100 µM; in the experiment with OVCAR-5 ovarian it was > 100 µM; in the experiment on KM12 colon, 5.61 µM; in the experiment on RXF 393 renal it was 81.1 µM; in the experiment with UACC-62 melanoma, > 94.9 µM. Further, the TGI with NCI-H522 lung is 0.0556 µM; with UO-31 renal it was 31.1 µM; with TK-10 renal it was 74.1 µM; with OVCAR-4 ovarian, > 96.8 µM.

Regarding `Cc1nn(C)c(=O)c2nn(-c3ccccc3)c(C)c12`, the TGI in the experiment with HCT-15 colon, in the experiment on LOX IMVI melanoma, in the experiment with OVCAR-5 ovarian, in the experiment with KM12 colon, in the experiment with RXF 393 renal and in the experiment on UACC-62 melanoma was > 100 µM throughout. In addition, the TGI in the experiment on NCI-H522 lung, in the experiment with UO-31 renal, in the experiment with TK-10 renal and with OVCAR-4 ovarian was > 100 µM each time.

On to `CC1(C)CC[C@]2(C(=O)O)CC[C@]3(C)[C@H](CC[C@@H]4[C@@]5(C)CCC(=O)C(C)(C)[C@@H]5CC[C@]43C)[C@H]2[C@H]1OC(=O)C(F)(F)F`, for which the GI50 in the experiment on HCT-15 colon is 4.99 µM; in the experiment with LOX IMVI melanoma, 5.91 µM; with OVCAR-5 ovarian, 15.7 µM; with KM12 colon it was 10.4 µM; in the experiment with RXF 393 renal, 11.1 µM; in the experiment on UACC-62 melanoma, 6.66 µM. Besides, the GI50 in the experiment on NCI-H522 lung was 12.6 µM; in the experiment with UO-31 renal, 13.7 µM; with TK-10 renal, 16.9 µM; in the experiment on OVCAR-4 ovarian it was 13.1 µM. In addition, the TGI with HCT-15 colon was 18.1 µM; in the experiment on LOX IMVI melanoma, 18.9 µM; in the experiment with OVCAR-5 ovarian, 30.7 µM; in the experiment with KM12 colon, 24.4 µM; in the experiment on RXF 393 renal, 23.8 µM; in the experiment on UACC-62 melanoma, 20.3 µM. For the same molecule, the TGI in the experiment with NCI-H522 lung was 29.1 µM; with UO-31 renal, 27 µM; with TK-10 renal it was 31.8 µM; with OVCAR-4 ovarian, 29.8 µM.

Consider `C#CC#CC#CC#CC#CC#CC#CC#CCC1OC[C@H](COC(=O)O[C@@H](C(=O)O[C@H]2C[C@@]3(O)[C@@H](OC(=O)c4ccccc4)[C@@H]4[C@]5(OC(C)=O)CO[C@@H]5C[C@H](O)[C@@]4(C)C(=O)[C@H](OC(C)=O)C(=C2C)C3(C)C)[C@@H](NC(=O)c2ccccc2)c2ccccc2)O1` (stereo not given in full), for which the GI50 with HCT-15 colon was 11.7 µM; in the experiment on LOX IMVI melanoma, 0.199 µM; with OVCAR-5 ovarian it was 0.554 µM; with KM12 colon it was 0.196 µM; in the experiment with RXF 393 renal it was 1.25 µM; in the experiment with UACC-62 melanoma it was 0.907 µM. Further, the GI50 with NCI-H522 lung is 0.648 µM; with UO-31 renal it was > 33.3 µM; with TK-10 renal it was > 21.5 µM; in the experiment with OVCAR-4 ovarian, > 33.3 µM. The TGI in the experiment with HCT-15 colon is > 33.3 µM; with LOX IMVI melanoma it was > 33.3 µM; with OVCAR-5 ovarian, > 33.3 µM; with KM12 colon it was > 33.3 µM; in the experiment with RXF 393 renal, > 15.3 µM; in the experiment with UACC-62 melanoma, > 33.3 µM. The TGI with NCI-H522 lung, in the experiment with UO-31 renal, in the experiment with TK-10 renal and with OVCAR-4 ovarian was > 33.3 µM each time.

`Cc1ccccc1NC(=O)c1sc2nc3c(cc2c1N)C(=O)CCC3`: the GI50 with HCT-15 colon is 1.64 µM; with LOX IMVI melanoma, 6.71 µM; in the experiment on OVCAR-5 ovarian, 6.82 µM; in the experiment on KM12 colon, 1.69 µM; in the experiment on RXF 393 renal, 1.62 µM; with UACC-62 melanoma, 0.999 µM. Further, the GI50 in the experiment on NCI-H522 lung was 0.896 µM; in the experiment on UO-31 renal it was 34.4 µM; in the experiment on TK-10 renal it was 4.05 µM; in the experiment on OVCAR-4 ovarian, 6.21 µM. The TGI was > 100 µM with HCT-15 colon; > 100 µM in the experiment with LOX IMVI melanoma; > 100 µM in the experiment with OVCAR-5 ovarian; > 100 µM with KM12 colon; 5.65 µM in the experiment with RXF 393 renal; > 100 µM with UACC-62 melanoma. Besides, the TGI is 3.5 µM with NCI-H522 lung, > 100 µM with UO-31 renal, > 100 µM in the experiment on TK-10 renal and > 100 µM in the experiment on OVCAR-4 ovarian.

Consider `CCCCc1nc2cc(/C=C/C(=O)NO)ccc2n1CCN(CC)CC`, for which the GI50 in the experiment on HCT-15 colon is 1.47 µM; with LOX IMVI melanoma, 0.291 µM; in the experiment with OVCAR-5 ovarian it was 0.13 µM; in the experiment on KM12 colon, 0.356 µM; with RXF 393 renal, 0.178 µM; with UACC-62 melanoma, 0.188 µM. Further, the GI50 with NCI-H522 lung is 0.0802 µM; in the experiment on UO-31 renal, 0.25 µM; in the experiment on TK-10 renal, 0.116 µM; in the experiment on OVCAR-4 ovarian, 0.345 µM. The TGI amounted to 22.4 µM in the experiment with HCT-15 colon; 1.28 µM with LOX IMVI melanoma; 1.4 µM with OVCAR-5 ovarian; 5.73 µM with KM12 colon; 0.789 µM with RXF 393 renal; 0.743 µM with UACC-62 melanoma. For the same molecule, the TGI with NCI-H522 lung is 0.52 µM; in the experiment on UO-31 renal, 4.92 µM; in the experiment on TK-10 renal, 0.598 µM; in the experiment with OVCAR-4 ovarian it was > 54.2 µM.

`COc1ccc2sc3c(NCCCNCCO)nc4ccccc4c3c(=O)c2c1`: the GI50 is 1.45 µM in the experiment on HCT-15 colon; 1.57 µM in the experiment on LOX IMVI melanoma; 1.6 µM with OVCAR-5 ovarian; 1.62 µM with KM12 colon; 1.31 µM in the experiment with RXF 393 renal; 1.7 µM with UACC-62 melanoma. Also, the GI50 in the experiment on NCI-H522 lung is 1.74 µM; in the experiment with UO-31 renal, 1.56 µM; in the experiment on TK-10 renal, 1.83 µM; in the experiment with OVCAR-4 ovarian, 1.94 µM. The TGI in the experiment with HCT-15 colon stood at 2.87 µM; in the experiment with LOX IMVI melanoma it was 3 µM; with OVCAR-5 ovarian it was 3.05 µM; in the experiment on KM12 colon, 3.12 µM; in the experiment on RXF 393 renal it was 2.7 µM; with UACC-62 melanoma, 3.16 µM. Besides, the TGI was found to be 3.37 µM in the experiment on NCI-H522 lung, 2.99 µM in the experiment with UO-31 renal, 3.38 µM in the experiment with TK-10 renal and 4.09 µM with OVCAR-4 ovarian.

As to `COC(=O)[C@]12CC[C@@H](C)[C@H](C)[C@@H]1C1=CC[C@@H]3[C@@]4(C)C=C(O)C(=O)C(C)=C4CC[C@@]3(C)[C@]1(C)CC2`, the GI50 in the experiment on HCT-15 colon is 11.9 µM; in the experiment on LOX IMVI melanoma, 13 µM; in the experiment on OVCAR-5 ovarian, 17.8 µM; in the experiment with KM12 colon, 7.72 µM; in the experiment on RXF 393 renal it was 12.1 µM; with UACC-62 melanoma, 14.5 µM. Moreover, the GI50 with NCI-H522 lung was 3.92 µM; with UO-31 renal, 11.6 µM; in the experiment with TK-10 renal, 18.2 µM; in the experiment on OVCAR-4 ovarian, 11.9 µM. Moreover, the TGI worked out at 27.6 µM in the experiment with HCT-15 colon; 27.4 µM in the experiment on LOX IMVI melanoma; 38.6 µM in the experiment on OVCAR-5 ovarian; 21.8 µM in the experiment with KM12 colon; 27.9 µM with RXF 393 renal; 31.3 µM in the experiment with UACC-62 melanoma. In addition, the TGI with NCI-H522 lung is 14.7 µM; in the experiment with UO-31 renal, 26.3 µM; with TK-10 renal, 35.8 µM; in the experiment with OVCAR-4 ovarian, 26.3 µM.

Consider `CN1CCN(c2cc(Nc3cc(C4CC4)[nH]n3)nc(Nc3ccc(CC(=O)NCc4cccc(F)c4)cc3)n2)CC1`, for which the GI50 is 2.9 µM in the experiment on HCT-15 colon; 0.219 µM with LOX IMVI melanoma; 0.432 µM in the experiment on OVCAR-5 ovarian; 0.0671 µM in the experiment on KM12 colon; 0.404 µM in the experiment with RXF 393 renal; 1.62 µM in the experiment on UACC-62 melanoma. In addition, the GI50 with NCI-H522 lung is 1.53 µM; with UO-31 renal, 1.69 µM; in the experiment on TK-10 renal, 2.92 µM; in the experiment with OVCAR-4 ovarian, 1.55 µM. Also, the TGI in the experiment with HCT-15 colon was 14.5 µM; in the experiment on LOX IMVI melanoma it was 1.48 µM; with OVCAR-5 ovarian, 15.8 µM; with KM12 colon, 12.1 µM; in the experiment with RXF 393 renal it was 1.71 µM; in the experiment on UACC-62 melanoma, 16.2 µM. Moreover, the TGI with NCI-H522 lung worked out at 7.08 µM; with UO-31 renal, 4.73 µM; in the experiment on TK-10 renal, 16.1 µM; with OVCAR-4 ovarian it was 22 µM.

Take `O=C(/C=C/c1ccc(Cl)cc1)c1ccncc1`: the TGI in the experiment with HCT-15 colon was > 100 µM; in the experiment with LOX IMVI melanoma it was 73.6 µM; with OVCAR-5 ovarian it was > 100 µM; in the experiment with KM12 colon, 86.6 µM; in the experiment with RXF 393 renal, 88.8 µM; in the experiment on UACC-62 melanoma it was > 100 µM. Also, the TGI with NCI-H522 lung, in the experiment on UO-31 renal, in the experiment with TK-10 renal and with OVCAR-4 ovarian was > 100 µM each time.

Turning to `O=C(CC(=O)c1ccccc1NC1=Cc2ccccc2C(=O)C1=O)C(=O)NC1=C(Cl)C(=O)c2ccccc2C1=O`, the TGI with HCT-15 colon amounted to 6.03 µM; with LOX IMVI melanoma it was 3.35 µM; with OVCAR-5 ovarian, 12.6 µM; with KM12 colon, 15.6 µM; with RXF 393 renal, 7.5 µM; with UACC-62 melanoma it was 3.97 µM. For the same molecule, the TGI was determined as 4.79 µM in the experiment with NCI-H522 lung, 20.4 µM in the experiment with UO-31 renal, 43.6 µM in the experiment on TK-10 renal and 15.1 µM in the experiment on OVCAR-4 ovarian.

The values above are taken from PubChem BioAssay (NCI).
